From US20230150951A1, “2,5- OR 2,6-DISUBSTITUTED HYDROQUINONE DERIVATIVES WITH AT LEAST ONE CARBOXY, SULFO OR AMIDO GROUP USEFUL AS MEDICAMENTS” (OM PHARMA SA, priority 2020, published 2023)
Where two headings read alike, the source gives them in different places.

Key:
IL-17A = assay: Cytokine release after LPS induction on human whole blood: IL-17A; format: cell-based; conditions: Homo sapiens
In short: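 Blood drawn from one donor into heparin is diluted 1:5 with RPMI and, within 30 min, treated with compound at seven concentrations from 100 to 0.1 µM for 1 h. LPS (10 ng/ml final) is then added for 18 h at 37 °C, and cytokines are measured by flow-cytometric multiplex.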

IL-33 = assay: Cytokine release after LPS induction on human whole blood: IL-33; format: cell-based; conditions: Homo sapiens
In short: (§1)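 Single-donor heparinised human whole blood, diluted 1:5 in RPMI 1640, was pre-incubated with compound (100 to 0.1 µM) for 1 h at 37 °C, then stimulated with LPS O111:B4 (10 ng/ml final) for 18 h. Supernatant cytokines were quantified by multiplex flow-cytometric bead assay against standards; IC50 in µM.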

IL-1beta = assay: Cytokine release after LPS induction on human whole blood: IL-1β; format: cell-based; conditions: Homo sapiens
In short: as §1

[1] = system: STZ-induced diabetes model; assay: STZ-induced diabetic nephropathy, kidney disease and retinopathy model (28 days treatment); conditions: 15 mg/kg IV, Captopril 50 mg/kg PO
Method: A total of 70 female CD-1 mice aged 5-7 weeks weighing approximately 25-30 g were used for the study. These were purchased from Charles River, UK and had 7 days acclimatization period. Animals were housed in IVC cages (up to 5 per cage) with individual mice identified by tail mark. All animals were allowed free access to a standard certified commercial diet and sanitised water during the study. The holding room was maintained under standard conditions: 18-24° C., 55-70% humidity and a 12 h light/dark cycle.
Mice were starved for 6 hours prior to injection. One week after completion of induction glucose levels were monitored and mice with levels less than 15 mml/L (280 mg/gL) were removed from the study as they had not developed the ideal severity of diabetes. Glucose levels were be monitored weekly and 5 weeks after STZ induction biochemical assessment of renal injury was carried out by measuring urine albumin and creatinine levels and confirming they were within the desired range. After successful completion of this stage animals were assigned to treatment groups.
Treatment continued for 4 weeks (28 days) with weekly measurement of blood glucose and urine albumin/creatinine. The study schedule is detailed below looking at weekly (week 5 to 9) blood glucose levels, urine albumin creatinie ratios, and terminal (week 9) blood chemistry and cytokines, kidney histology and eye-retinal leakage.
Urine Albumin: Creatinine (ALB: CRE): Urine was collected weekly and pooled for each treatment group.
ELISAs: At the end of the treatment period blood was collected and processed to serum. Serum levels of CRP, TGF-β, IL-6 and TNF-α were quantified using commercially available ELISA kits, results are shown in Table 56.

Human neutrophils = assay: Inhibition of ROS production in human neutrophils (isoluminol chemiluminescence); format: cell-based; conditions: Homo sapiens, Neutrophil; 0.3 μM; fMLP+TNF-α stimulated PMN
In short: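 Extracellular ROS measured as isoluminol-amplified chemiluminescence following 1 μM fMLP activation on fibrinogen-coated plates, readings every 25 sec over 250 sec minus HBSS/isoluminol background. Beforehand, cells were treated with compounds at 0.1, 0.3, 1, 3 or 10 μM (30 min, 37° C) and TNF-α (20 ng/ml, 10 min); duplicate or triplicate.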

TNF-alpha = assay: Cytokine release after LPS induction on human whole blood: TNFα; format: cell-based; conditions: Homo sapiens
In short: as §1

[2] = day 28 of treatment (week 9), serum

## O=C(O)c1cc(NC(=O)c2cc(O)c(C(=O)Nc3ccccc3-c3nnn[nH]3)cc2O)ccc1O [Ic-001a-Tz/004a, 5-(4-(2-(1H-tetrazol-5-yl)phenylaminocarbonyl)-2,5-dihydroxybenzamido)-2-hydroxy benzoic acid]
IL-17A; 18 h, read-out: Whole Blood: IL-17A IC50
  IC50: 20 nM
IL-17A; read-out: IC50 IL-17A
  IC50: 20 nM
IL-33; 18 h, read-out: Whole Blood: IL-33 IC50
  IC50: 1670 nM
IL-33; read-out: IC50 IL-33
  IC50: 1670 nM
IL-1beta; 18 h, read-out: Whole Blood: IL-1β IC50
  IC50: > 100000 nM
IL-1beta; read-out: IC50 IL-1b
  IC50: 100000 nM
[1]; day 0
  Mean day 0 blood glucose Concentration (mmol/L) (SD): 25.8 (5.7) mmol/L
[1]; day 28
  Mean day 28 blood glucose Concentration (mmol/L) (SD): 29.6 (7.8) mmol/L
[1]; day 28 of treatment (week 9)
  Blood BUN: 24.1 ± 4.1
  Disease Score (kidney, H&E): 9 ± 1
  Eye area (retinal flatmount area covered by vasculature): 10.7 ± 2.1
  Trichrome staining (Kidney fibrosis): 2.48 ± 0.46
[1]; [2]
  Blood CRP: 6077 ± 863
  Blood IL-6: 104.66 ± 22.89
  Blood TGF-beta: 15.48 ± 1.73
  Blood TNF-alpha: 322.8 ± 40.1
[1]; day 28 of treatment (week 9), urine pooled per group
  Urine albumine creatinine ratio (ALB:CRE): 35.10
Human neutrophils
  inhibition at 0.3 µM: 82.8%
TNF-alpha; 18 h, read-out: Whole Blood: TNF α IC50
  IC50: 2 nM
TNF-alpha; read-out: IC50 TNFa
  IC50: 2 nM
